The subject of assay [1] is HepG2. Description: Antiproliferative activity against human HepG2 cells assessed as cell growth inhibition measured after 48 hrs by MTT assay. It is filed as functional, cell-based. Conditions: HepG2, 48 h.
For a further assay, the system named is A549. Description: Antiproliferative activity against human A549 cells assessed as cell growth inhibition measured after 48 hrs by MTT assay. Conditions: A549, 48 h. The format is functional, cell-based.
A further assay concerns L02. The experiment in a line: Cytotoxicity against human HL7702 cells assessed as cell growth inhibition measured after 48 hrs by MTT assay. The format is cell-based. Conditions: L02, 48 h.
A further assay concerns SMMC-7721. The experiment in a line: Antiproliferative activity against human SMMC7721 cells assessed as cell growth inhibition measured after 48 hrs by MTT assay. It is filed as functional, cell-based. The note with it: SMMC-7721, 48 h. A general note: Formazan colour is commonly taken as a measure of viable cells.
Another assay relates to SK-OV-3. Description: Antiproliferative activity against human SKOV3 cells assessed as cell growth inhibition measured after 48 hrs by MTT assay. It is filed as functional, cell-based. Conditions: SK-OV-3, 48 h.
Assay [2] deals with T-24. The experiment in a line: Antiproliferative activity against human T24 cells assessed as cell growth inhibition measured after 48 hrs by MTT assay. The format is functional, cell-based. Conditions: T-24, 48 h.
The subject of assay [3] is T-24. The experiment in a line: Anticancer activity against human T24 cells xenografted in mouse assessed as tumor inhibition rate at 5 mg/kg measured at day 14 relative to control. It is filed as functional. The note with it: T-24, 336 h. (In xenograft studies the graft and the host belong to different species.)
For assay [4], the system named is T-24. Description: Anticancer activity against human T24 cells xenografted in mouse assessed as tumor growth inhibition by measuring T/C ratio at 5 mg/kg measured at day 14 relative to control. It is filed as functional.
The subject of assay [5] is HepG2. Description: Anticancer activity against human HepG2 cells xenografted in mouse assessed as tumor inhibition rate at 5 mg/kg measured at day 14 relative to control. The format is functional. Conditions: HepG2, 336 h.
Assay [6] concerns HepG2. Description: Anticancer activity against human HepG2 cells xenografted in mouse assessed as tumor growth inhibition by measuring T/C ratio at 5 mg/kg measured at day 14 relative to control. The format is functional.

Some results are limits rather than exact numbers.

Regarding `O=C1c2cccc3cc([N+](=O)[O-])cc(c23)C(=O)N1c1nc2ccccc2[nH]1`, the 50% inhibitory concentration (IC50) is 50.4 µM in the assay on HepG2 [1]; 36.9 µM with A549; above 100 µM in the assay with L02; 54.1 µM in the assay with SMMC-7721; 60.5 µM in the assay on SK-OV-3; 54.9 µM with T-24 [2].

Turning to `CNCCCN1C(=O)c2cccc3cc([N+](=O)[O-])cc(c23)C1=O`, the IC50 worked out at 10.3 µM in the assay on HepG2 [1]; 19.8 µM in the assay with A549; 14.3 µM in the assay on L02; 26.6 µM with SMMC-7721; 28.2 µM in the assay with SK-OV-3; 9.03 µM in the assay with T-24 [2].

Regarding `O=C1c2cccc3cc([N+](=O)[O-])cc(c23)C(=O)N1Nc1nc2ccccc2s1`, the IC50 in the assay with HepG2 [1] was 51.3 µM; in the assay on A549 it was 44.1 µM; in the assay on L02, 65.3 µM; with SMMC-7721 it was above 100 µM; in the assay with SK-OV-3, 58.8 µM; in the assay on T-24 [2] it was 31.2 µM.

Regarding `O=C1c2cccc3cc([N+](=O)[O-])cc(c23)C(=O)N1c1ccc2[nH]c(=O)[nH]c2c1`, the IC50 in the assay with HepG2 [1] is 23.9 µM; in the assay on A549, 44.8 µM; with L02, above 100 µM; with SMMC-7721 it was 54.7 µM; in the assay on SK-OV-3 it was 41.4 µM; in the assay with T-24 [2], 58 µM.

On to `CN(C)CCN1C(=O)c2cccc3cc([N+](=O)[O-])cc(c23)C1=O` [MITONAFIDE], for which the inhibition in vivo at 5 mg/kg in the assay on T-24 [3] is 67%; in the assay on HepG2 [5] it was 68.3%. The T/C in the assay with T-24 [4] was 29%; with HepG2 [6], 28.8%. The IC50 with HepG2 [1] was 10.9 µM; with A549, 7.94 µM; with L02, 8.51 µM; in the assay with SMMC-7721, 6.94 µM; in the assay on SK-OV-3, 6.26 µM; in the assay with T-24 [2] it was 5.01 µM.

For the compound `O=C1c2cccc3cc([N+](=O)[O-])cc(c23)C(=O)N1Nc1ccccc1`, the IC50 in the assay on HepG2 [1] is 38.7 µM; with A549, 32.1 µM; with L02, 59.1 µM; in the assay with SMMC-7721, above 100 µM; with SK-OV-3 it was 61.1 µM; in the assay with T-24 [2], 15.1 µM.

Consider `O=C1c2cccc3cc([N+](=O)[O-])cc(c23)C(=O)N1Nc1ccccn1`, for which the IC50 in the assay with HepG2 [1] was 42.7 µM; with A549 it was 30 µM; with L02, 82.4 µM; with SMMC-7721 it was above 100 µM; in the assay on SK-OV-3, 48.2 µM; in the assay on T-24 [2] it was 57.6 µM.

As a reminder, the IC50 is the concentration that inhibits the measured activity by half. A word on the inhibition in vivo: it is the share of the control response that was lost under treatment. A word on the T/C: it is the ratio of treated to control.

For the origin of these results see ChEMBL document CHEMBL4627310, “Design, synthesis and biological evaluation of 3-nitro-1,8-naphthalimides as potential antitumor agents” (Bioorg Med Chem Lett, 2020).
